Experimental data as given in US20260248748A1, “LIPOOLIGOUREAS, PHARMACEUTICAL COMPOSITION, AND LIPOOLIGOUREAS FOR USE AS MEDICAMENT” (priority 2022, published 2026).
≈ marks a conversion by molar mass, not a printed value. Read-outs that look alike come from different tables or passages of the source.

How the values were obtained:
[1] = system: strains of methicillin-resistant Staphylococcus aureus (MRSA); test: Activity against MRSA strains (summary of the MIC results); format: cell-based; conditions: in words, from the MIC values of Table 1
Experimental: (§1) All strains were cultured in LB medium (lysogenic broth).
(§2) The test compounds were dissolved in water. […] Data were obtained from three independent experiments.
The results of the measurements summarized in Table 1 indicate that all of the lipooligoureas tested show varying activity against the bacterial strains tested. Lipooligoureas according to the invention show activity against both gram-positive and gram-negative bacterial strains. The results obtained indicate a certain degree of selectivity of the lipooligoureas according to the invention against gram-positive strains of Staphylococcus aureus ATCC 29213 and Staphylococcus epidermidis ATCC 12228, for which by far the highest activity of the tested lipooligoureas was observed, i.e. the lowest values of MIC. This trend is also reflected in the activity against strains of methicillin-resistant Staphylococcus aureus (MRSA).

[2] = system: Enterococcus faecalis ATCC 14506; format: cell-based; conditions: LB medium, 24 h, 30° C.
Experimental: as §1, §2

[3] = system: Staphylococcus epidermidis ATCC 12228; format: cell-based; conditions: LB medium, 24 h, 30° C.
Experimental: as §1, §2

[4] = system: Pseudomonas aeruginosa PAO1 PCM 499; format: cell-based; conditions: LB medium, 24 h, 30° C.
Experimental: as §1, §2

[5] = system: Staphylococcus aureus ATCC 29213; format: cell-based; conditions: LB medium, 24 h, 30° C.
Experimental: as §1, §2

[6] = system: Escherichia coli ST2-8624 O157:H7; format: cell-based; conditions: LB medium, 24 h, 30° C.
Experimental: as §1, §2

[7] = system: Klebsiella pneumoniae PCM 1; format: cell-based; conditions: LB medium, 24 h, 30° C.
Experimental: as §1, §2

[8] = system: Yersinia enterocolitica PCM 2081; format: cell-based; conditions: LB medium, 24 h, 30° C.
Experimental: as §1, §2

[9] = system: Salmonella sv. typhimurium TT622; format: cell-based; conditions: 24 h
Experimental: as §1, §2

[10] = system: Methicillin-resistant Staphylococcus aureus (MRSA) 5288/13; conditions: MRSA strain (+) 5288/13; LB medium, 24 h, 30° C.
Excerpt: (§3) All bacterial strains were obtained from the Polish Collection of Microorganisms (PCM) or American Type Culture Collection (ATCC). Gram-positive bacterial strains: Staphylococcus aureus ATCC 29213, Staphylococcus epidermidis ATCC 12228, Enterococcus faecalis ATCC 14506. Methicillin-resistant Staphylococcus aureus (MRSA) bacterial strains: Staphylococcus aureus 401/5, Staphylococcus aureus 4811/13, Staphylococcus aureus 5288/13. Gram-negative bacterial strains: Escherichia coli ST2-8624 O157:H7, Pseudomonas aeruginosa PAO1 PCM 499, Klebsiella pneumoniae PCM 1, Salmonella sv. typhimurium TT622, and Yersinia enterocolitica PCM 2081. All strains were cultured in LB medium (lysogenic broth).
(§4) 10 mL of LB medium was inoculated with the material from a single bacterial colony and cultured at 30° C. with shaking overnight. The optical density of overnight cultures (at 600 nm) was then brought to 0.05 by dilution with a fresh portion of LB medium. The test compounds were dissolved in water. Serial dilutions of the compounds were performed in LB medium ranging from 5 to 50 μg/mL (final concentrations). The experiment was carried out by adding 100 μL of each prepared dilution to 100 μL of diluted overnight bacterial culture in the wells of a 96-well titer plate. […] Optical density measurements were conducted using a TECAN Sunrise plate reader. Data were obtained from three independent experiments.

[11] = system: Methicillin-resistant Staphylococcus aureus (MRSA) 4811/13; conditions: MRSA strain (+) 4811/13; LB medium, 24 h, 30° C.
Excerpt: as §3, §4

[12] = system: Methicillin-resistant Staphylococcus aureus (MRSA) 401/5; conditions: MRSA strain (+) 401/5; LB medium, 24 h, 30° C.
Excerpt: as §3, §4

[13] = (−) Salmonella sv. typhimurium TT622, LB medium, 30° C.

**Q.** Which “activity against strains of methicillin-resistant Staphylococcus aureus (MRSA)” value [1] does the source give for `CCCCCCCCCC(=O)N[C@H](CNC(=O)N[C@@H](CCN)CNC(=O)N[C@@H](CCN)CNC(=O)N[C@H](CNC(=O)N[C@H](CNC(N)=O)CC(C)C)CC(C)C)Cc1ccccc1` [LOU2] here?
**A.** particularly high activity

**Q.** And the MIC [2]?
**A.** 20 µg/mL (≈ 22.5 µM)

**Q.** And the MIC [3]?
**A.** 10 µg/mL (≈ 11.2 µM)

**Q.** And the MIC [4]?
**A.** 30 µg/mL (≈ 33.7 µM)

**Q.** And the MIC [5]?
**A.** 10 µg/mL (≈ 11.2 µM)

**Q.** What about the MIC [6] of the same molecule?
**A.** 30 µg/mL (≈ 33.7 µM)

**Q.** And the MIC [7]?
**A.** 30 µg/mL (≈ 33.7 µM)

**Q.** And the MIC [8]?
**A.** 30 µg/mL (≈ 33.7 µM)

**Q.** What about the MIC [9] of the same molecule?
**A.** 30 µg/mL (≈ 33.7 µM)

**Q.** What about the MIC [10] of the same molecule?
**A.** 10 µg/mL (≈ 11.2 µM)

**Q.** And the MIC [11]?
**A.** 10 µg/mL (≈ 11.2 µM)

**Q.** What about the MIC [12] of the same molecule?
**A.** 10 µg/mL (≈ 11.2 µM)

**Q.** Which MIC [2] does the source give for `CCCCCCCCCC(=O)N[C@H](CNC(=O)N[C@@H](CCN)CNC(=O)N[C@@H](CCN)CNC(=O)N[C@H](CNC(=O)N[C@@H](CCN)CNC(N)=O)CC(C)C)Cc1ccccc1` [LOU4] here?
**A.** 40 µg/mL (≈ 45.6 µM)

**Q.** And the MIC [3]?
**A.** 20 µg/mL (≈ 22.8 µM)

**Q.** What about the MIC [4] of the same molecule?
**A.** n.d. (n.d. = not determined, i.e., the MIC value was higher than 50 μg/mL)

**Q.** What about the MIC [5] of the same molecule?
**A.** 20 µg/mL (≈ 22.8 µM)

**Q.** What about the MIC [6] of the same molecule?
**A.** n.d. (n.d. = not determined, i.e., the MIC value was higher than 50 μg/mL)

**Q.** What about the MIC [7] of the same molecule?
**A.** n.d. (n.d. = not determined, i.e., the MIC value was higher than 50 μg/mL)

**Q.** What about the MIC [8] of the same molecule?
**A.** n.d. (n.d. = not determined, i.e., the MIC value was higher than 50 μg/mL)

**Q.** What about the MIC [9, 13] of the same molecule?
**A.** n.d. (n.d. = not determined, i.e., the MIC value was higher than 50 μg/mL)

**Q.** And the MIC [10]?
**A.** 30 µg/mL (≈ 34.2 µM)

**Q.** What about the MIC [11] of the same molecule?
**A.** 30 µg/mL (≈ 34.2 µM)

**Q.** What about the MIC [12] of the same molecule?
**A.** 20 µg/mL (≈ 22.8 µM)

**Q.** `CCCCCCCCCC(=O)N[C@H](CNC(=O)N[C@@H](CCCCN)CNC(=O)N[C@@H](CCCCN)CNC(=O)N[C@H](CNC(=O)N[C@@H](CCCCN)CNC(N)=O)CC(C)C)Cc1ccccc1` [LOU1] was tested. Which MIC [2] did it give?
**A.** n.d. (n.d. = not determined, i.e., the MIC value was higher than 50 μg/mL)

**Q.** What about the MIC [3] of the same molecule?
**A.** 30 µg/mL (≈ 31.2 µM)

**Q.** What about the MIC [4] of the same molecule?
**A.** n.d. (n.d. = not determined, i.e., the MIC value was higher than 50 μg/mL)

**Q.** What about the MIC [5] of the same molecule?
**A.** 30 µg/mL (≈ 31.2 µM)

**Q.** And the MIC [6]?
**A.** n.d. (n.d. = not determined, i.e., the MIC value was higher than 50 μg/mL)

**Q.** And the MIC [7]?
**A.** n.d. (n.d. = not determined, i.e., the MIC value was higher than 50 μg/mL)

**Q.** What about the MIC [8] of the same molecule?
**A.** n.d. (n.d. = not determined, i.e., the MIC value was higher than 50 μg/mL)

**Q.** And the MIC [9, 13]?
**A.** n.d. (n.d. = not determined, i.e., the MIC value was higher than 50 μg/mL)

**Q.** And the MIC [10]?
**A.** 40 µg/mL (≈ 41.6 µM)

**Q.** What about the MIC [11] of the same molecule?
**A.** 30 µg/mL (≈ 31.2 µM)

**Q.** And the MIC [12]?
**A.** 30 µg/mL (≈ 31.2 µM)

**Q.** How did the “activity against strains of methicillin-resistant Staphylococcus aureus (MRSA)” value [1] turn out when `CCCCCCCCCC(=O)N[C@H](CNC(=O)N[C@@H](CCN)CNC(=O)N[C@H](CNC(=O)N[C@H](CNC(=O)N[C@@H](CCN)CNC(N)=O)CC(C)C)CC(C)C)Cc1ccccc1` [LOU3] was run?
**A.** particularly high activity

**Q.** What about the MIC [2] of the same molecule?
**A.** 5 µg/mL (≈ 5.62 µM)

**Q.** And the MIC [3]?
**A.** 5 µg/mL (≈ 5.62 µM)

**Q.** And the MIC [4]?
**A.** 10 µg/mL (≈ 11.2 µM)

**Q.** What about the MIC [5] of the same molecule?
**A.** 5 µg/mL (≈ 5.62 µM)

**Q.** And the MIC [6]?
**A.** 10 µg/mL (≈ 11.2 µM)

**Q.** And the MIC [7]?
**A.** 20 µg/mL (≈ 22.5 µM)

**Q.** And the MIC [8]?
**A.** 10 µg/mL (≈ 11.2 µM)

**Q.** What about the MIC [9] of the same molecule?
**A.** 20 µg/mL (≈ 22.5 µM)

**Q.** And the MIC [10]?
**A.** 5 µg/mL (≈ 5.62 µM)

**Q.** What about the MIC [11] of the same molecule?
**A.** 5 µg/mL (≈ 5.62 µM)

**Q.** What about the MIC [12] of the same molecule?
**A.** 5 µg/mL (≈ 5.62 µM)
